Measurements: patent US20080207714A1, “Diagnosis And Treatment Of Breast Cancer” (THE REGENTS OF THE UNIVERSITY OF MICHIGAN, priority 2006, published 2008)

What was measured:
Assay type in all cases: cell-based
Conditions in all cases: reduction of AT-mediated invasion, losartan 2 uM
[1] = tested on: H16N2 immortalized benign breast epithelial cell line; test: Matrigel cell invasion assay, H16N2
578T breast cancer cells = test: Matrigel cell invasion assay, 578T
[2] = tested on: DU145 prostate cancer cells; test: Matrigel cell invasion assay, DU145
[3] = tested on: MCF-7 breast cancer cells; test: Matrigel cell invasion assay, MCF7
[4] = tested on: BT549 breast cancer cells; test: Matrigel cell invasion assay, BT549

CCCCc1nc(Cl)c(CO)n1Cc1ccc(-c2ccccc2-c2nn[nH]n2)cc1 [Lo, Losartan]
Lo (2 uM) % Red. [1]: 16.7% | Lo (2 uM) % Red. (578T breast cancer cells): 67.9% | Lo (2 uM) % Red. (578T breast cancer cells; listed as losartan): 68% | Lo (2 uM) % Red. [2]: 35.0% | Lo (2 uM) % Red. [3]: 56.7% | Lo (2 uM) % Red. [4]: 72.4% | Lo (2 uM) % Red. ([4]; listed as losartan): 72%
